Data: patent US12428406B2 (PMV Pharmaceuticals, Inc., priority 2019, dated 2025)

molecular target: T1, p53 Y220C (Homo sapiens, UniProt P04637, Y220C); test: In vitro DNA binding activity assay (HTRF / TR-FRET): stabilization of p53 Y220C and increase of its DNA binding activity; assay type: biochemical; settings: recombinant His-tagged p53 Y220C DNA binding domain (aa 94-312), biotin-labeled consensus DNA, incubated at 27° C. or 29° C. for 60 min
T1 construct: The recombinant protein was a truncation mutant containing only amino acids 94-312 of p53; made in house; host or cells: E. coli
T1 sequence (P04637 94-312, change not shown): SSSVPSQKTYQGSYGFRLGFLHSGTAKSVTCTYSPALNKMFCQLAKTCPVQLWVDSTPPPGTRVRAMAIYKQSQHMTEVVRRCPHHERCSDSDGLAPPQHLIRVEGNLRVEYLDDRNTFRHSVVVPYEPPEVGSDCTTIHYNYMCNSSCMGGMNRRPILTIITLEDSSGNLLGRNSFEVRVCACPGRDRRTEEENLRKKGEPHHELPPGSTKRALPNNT
Procedure, shortened: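 Compounds from 4.5 mM DMSO stocks, 3-fold serial dilutions; room-temperature incubations of 15 and 20 min. SC150 = concentration raising DNA binding by 50% over no-compound control.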

| Compound | SC150 (concentration of the compound required to increase the DNA binding activity by 50%) |
| --- | --- |
| COc1cc(S(C)(=O)=O)ccc1NCC#Cc1cc2c(N[C@H]3CC[C@H](N(C)C)CC3)cccc2n1CC1CO1 (stereo partly drawn) [Compound 77A, (1R,4R)—N^4-(2-{3-[(4-methanesulfonyl-2-methoxyphenyl)amino]prop-1-yn-1-yl}-1-[(oxiran-2-yl)methyl]-1H-indol-4-yl)-N^1,N^1-dimethylcyclohexane-1,4-diamine] | ++++ (++++ = 0.2 μM ≤ SC150 < 1 μM) |
| COc1cc(C(C)(C)C#N)ccc1NCC#Cc1cc2c(NC3CCC(N4CC5(COC5)C4)CC3)cccc2n1CC(F)(F)F [Compound 251A, 2-(3-methoxy-4-{[3-(4-{[(1R,4R)-4-{2-oxa-6-azaspiro[3.3]heptan-6-yl}cyclohexyl]amino}-1-(2,2,2-trifluoroethyl)-1H-indol-2-yl)prop-2-yn-1-yl]amino}phenyl)-2-methylpropanenitrile] | + (+ = 0 μM ≤ SC150 < 0.05 μM) |
| COCC(O)CN1CCC(Nc2cccc3c2cc(C#CCNc2cc(F)c(C(N)=O)cc2OC)n3CC(F)(F)F)CC1 (stereo not shown) [Compound 683A, 2-fluoro-4-{[3-(4-{[1-(2-hydroxy-3-methoxypropyl)piperidin-4-yl]amino}-1-(2,2,2-trifluoroethyl)-1H-indol-2-yl)prop-2-yn-1-yl]amino}-5-methoxybenzamide] | + (+ = 0 μM ≤ SC150 < 0.05 μM) |
| COc1cc(C(=O)NC(C)CO)ccc1NCC#Cc1cc2c(N[C@@H]3CCN(C)C[C@@H]3F)cccc2n1CC(F)(F)F (stereo partly drawn) [Compound 1056A, 4-{[3-(4-{[(3S,4R)-3-fluoro-1-methylpiperidin-4-yl]amino}-1-(2,2,2-trifluoroethyl)-1H-indol-2-yl)prop-2-yn-1-yl]amino}-N-(1-hydroxypropan-2-yl)-3-methoxybenzamide] | + (+ = 0 μM ≤ SC150 < 0.05 μM) |
| CNC(=O)c1ccc(NCC#Cc2cc3c(N[C@H]4CCN(C(C)(C)C)C[C@H]4F)cccc3n2CC(F)(F)F)c(OC)c1 [Compound 1073A, 4-{[3-(4-{[(3R,4S)-1-tert-butyl-3-fluoropiperidin-4-yl]amino}-1-(2,2,2-trifluoroethyl)-1H-indol-2-yl)prop-2-yn-1-yl]amino}-3-methoxy-N-methylbenzamide] | + (+ = 0 μM ≤ SC150 < 0.05 μM) |
| COc1cc(C(=O)N(C)C)ncc1NCC#Cc1cc2c(N[C@@H]3CCN(C)C[C@@H]3F)cccc2n1CC(F)(F)F [Compound 1064A, 5-{[3-(4-{[(3S,4R)-3-fluoro-1-methylpiperidin-4-yl]amino}-1-(2,2,2-trifluoroethyl)-1H-indol-2-yl)prop-2-yn-1-yl]amino}-4-methoxy-N,N-dimethylpyridine-2-carboxamide] | + (+ = 0 μM ≤ SC150 < 0.05 μM) |
| CNc1cc(S(C)(=O)=O)ccc1OCC#Cc1cc2c(N[C@H]3CC[C@@H](N(C)C)CC3)cccc2n1CC(F)(F)F [Compound 108A, (1S,4S)-N^4-(2-{3-[4-methanesulfonyl-2-(methylamino)phenoxy]prop-1-yn-1-yl}-1-(2,2,2-trifluoroethyl)-1H-indol-4-yl)-N^1,N^1-dimethylcyclohexane-1,4-diamine] | ++ (++ = 0.05 μM ≤ SC150 < 0.1 μM) |
| CN(C)[C@H]1CC[C@H](Nc2cccc3c2cc(C#CCNc2ccc(S(C)(=O)=O)cc2O)n3CC(F)(F)F)CC1 [Compound 80A, 5-methanesulfonyl-2-{[3-(4-{[(1S,4S)-4-(dimethylamino)cyclohexyl]amino}-1-(2,2,2-trifluoroethyl)-1H-indol-2-yl)prop-2-yn-1-yl]amino}phenol] | + (+ = 0 μM ≤ SC150 < 0.05 μM) |
| COc1cc(C(N)=O)ccc1NCC#Cc1cc2c(N[C@@H]3CCN(C)C[C@@H]3F)cccc2n1CC(F)(F)F [Compound 800A, 4-{[3-(4-{[(3S,4R)-3-fluoro-1-methylpiperidin-4-yl]amino}-1-(2,2,2-trifluoroethyl)-1H-indol-2-yl)prop-2-yn-1-yl]amino}-3-methoxybenzamide] | + (+ = 0 μM ≤ SC150 < 0.05 μM) |
| COCCOc1cc(S(C)(=O)=O)ccc1NCC#Cc1cc2c(N[C@H]3CC[C@@H](N4CC5(COC5)C4)CC3)cccc2n1CC(F)(F)F [Compound 221A, 2-(3-{[4-methane-sulfonyl-2-(2-methoxyethoxy)phenyl]amino}prop-1-yn-1-yl)-N-[(1S,4S)-4-{2-oxa-6-azaspiro[3.3]heptan-6-yl}cyclohexyl]-1-(2,2,2-trifluoroethyl)-1H-indol-4-amine] | + (+ = 0 μM ≤ SC150 < 0.05 μM) |
| COCC(O)CN1CCC(Nc2cccc3c2cc(C#CCNc2cc(F)c(S(C)(=O)=O)cc2OC)n3CC(F)(F)F)CC1 (stereo not shown) [Compound 677A, 1-{4-[(2-{3-[(5-fluoro-4-methanesulfonyl-2-methoxyphenyl)amino]prop-1-yn-1-yl}-1-(2,2,2-trifluoroethyl)-1H-indol-4-yl)amino]piperidin-1-yl}-3-methoxypropan-2-ol] | + (+ = 0 μM ≤ SC150 < 0.05 μM) |
| COc1cc(S(C)(=O)=O)ccc1NCC#Cc1cc2c(NC3CC4(COC4)C3)cccc2n1CC(F)(F)F [Compound 20A, 2-{3-[(4-methane-sulfonyl-2-methoxy-phenyl)amino]prop-1-yn-1-yl}-N-{2-oxaspiro[3.3]heptan-6-yl}-1-(2,2,2-trifluoroethyl)-1H-indol-4-amine] | + (+ = 0 μM ≤ SC150 < 0.05 μM) |
| COc1cc(S(N)(=O)=O)ccc1NCC#Cc1cc2c(NC3CCN(CCOC(C)=O)CC3)cccc2n1CC(F)(F)F [Compound 618A] | + (+ = 0 μM ≤ SC150 < 0.05 μM) |
| COc1cc(C(=O)N2CCC(O)CC2)ccc1NCC#Cc1cc2c(N[C@@H]3CCN(C)C[C@@H]3F)cccc2n1CC(F)(F)F [Compound 919A] | + (+ = 0 μM ≤ SC150 < 0.05 μM) |
| CNC(=O)c1cc(OC)c(NCC#Cc2cc3c(NC4CCN(CC(O)COC)CC4)cccc3n2CC(F)(F)F)cc1F (stereo not shown) [Compound 690A, 2-fluoro-4-{[3-(4-{[1-(2-hydroxy-3-methoxypropyl)piperidin-4-yl]amino}-1-(2,2,2-trifluoroethyl)-1H-indol-2-yl)prop-2-yn-1-yl]amino}-5-methoxy-N-methylbenzamide] | + (+ = 0 μM ≤ SC150 < 0.05 μM) |
| COc1cc(S(C)(=O)=O)ccc1NCC#Cc1cc2c(N[C@H]3CCO[C@@H](C)C3)cccc2n1CC(F)(F)F [Compound 1017A, 2-{3-[(4-methanesulfonyl-2-methoxyphenyl)amino]prop-1-yn-1-yl}-N-[(2S,4S)-2-methyloxan-4-yl]-1-(2,2,2-trifluoroethyl)-1H-indol-4-amine] | + (+ = 0 μM ≤ SC150 < 0.05 μM) |
| COc1cc(S(C)(=O)=O)ccc1NCC#Cc1cc2c(NC3CCN(CC4CCCO4)CC3)cccc2n1CC(F)(F)F (stereo not shown) [Compound 688A, 2-{3-[(4-methanesulfonyl-2-methoxyphenyl)amino]prop-1-yn-1-yl}-N-{1-[(oxolan-2-yl)methyl]piperidin-4-yl}-1-(2,2,2-trifluoroethyl)-1H-indol-4-amine] | + (+ = 0 μM ≤ SC150 < 0.05 μM) |
| COc1cc(S(C)(=O)=O)ccc1NCC#Cc1cc2c(N[C@H]3CC[C@H](N4CC5(COC5)C4)CC3)cccc2n1CC(F)(F)F [Compound 202A, 2-{3-[(4-methanesulfonyl-2-methoxyphenyl)amino]prop-1-yn-1-yl}-N-[(1R,4R)-4-{2-oxa-6-azaspiro[3.3]heptan-6-yl}cyclohexyl]-1-(2,2,2-trifluoroethyl)-1H-indol-4-amine] | + (+ = 0 μM ≤ SC150 < 0.05 μM) |
| CS(=O)(=O)c1ccc(NCC#Cc2cc3c(N[C@H]4CC[C@H](N5CC6(CCOCC6)C5)CC4)cccc3n2CC(F)(F)F)c(OCC(=O)O)c1 [Compound 311A, 2-(2-((3-(4-(((1R,4R)-4-(7-oxa-2-azaspiro[3.5]nonan-2-yl)cyclohexyl)amino)-1-(2,2,2-trifluoroethyl)-1H-indol-2-yl)prop-2-yn-1-yl)amino)-5-(methylsulfonyl)phenoxy)acetic acid] | ++ (++ = 0.05 μM ≤ SC150 < 0.1 μM) |
| COc1cc(S(C)(=O)=O)ccc1NCC#Cc1cc2c(N[C@H]3CC[C@@H](N4CC5(CCOCC5)C4)CC3)cccc2n1CC(F)(F)F [Compound 293A, 2-{3-[(4-methane-sulfonyl-2-methoxy-phenyl)amino]prop-1-yn-1-yl}-N-[(1S,4S)-4-{7-oxa-2-azaspiro[3.5]nonan-2-yl}cyclo-hexyl]-1-(2,2,2-trifluoro-ethyl)-1H-indol-4-amine] | + (+ = 0 μM ≤ SC150 < 0.05 μM) |
| CNC(=O)c1ccc(NCC#Cc2cc3c(N[C@H]4CC[C@H](N5CC6(COC6)C5)CC4)cccc3n2CC(F)(F)F)c(OC)c1 [Compound 229A, 3-methoxy-N-methyl-4-{[3-(4-{[(1R,4R)-4-{2-oxa-6-azaspiro[3.3]heptan-6-yl}cyclohexyl]amino}-1-(2,2,2-trifluoroethyl)-1H-indol-2-yl)prop-2-yn-1-yl]amino}benzamide] | + (+ = 0 μM ≤ SC150 < 0.05 μM) |
| CN(C)[C@H]1CC[C@H](Nc2cccc3c2cc(C#CCNc2ccc(S(C)(=O)=O)cc2OCF)n3CC(F)(F)F)CC1 [Compound 117A, (1R,4R)—N^1-(2-(3-((2-(fluoromethoxy)-4-(methylsulfonyl)phenyl)amino)prop-1-yn-1-yl)-1-(2,2,2-trifluoroethyl)-1H-indol-4-yl)-N^4,N^4-dimethylcyclohexane-1,4-diamine] | + (+ = 0 μM ≤ SC150 < 0.05 μM) |
